Test results as given in US10174016B2 (BAYER AKTIENGESELLSCHAFT, priority 2014, dated 2019).
Read-outs that look alike come from different tables or passages of the source.

What was measured:
CYP3A4 [1] = biological target: T1, CYP3A4 (Homo sapiens (Human), UniProt P08684); assay: Pre-incubation CYP inhibition assay, CYP3A4 (time dependent inhibition); type: in vitro ADME; details: human liver microsomes, probe midazolam, 30 min pre-incubation; read-out: CYP3A4 with preincubation IC50
From the text: (§1) Method Description CYP Inhibition Assay

rat hepatocytes = assay: In vitro metabolic stability in rat hepatocytes; type: in vitro ADME, Han Wistar rats; details: 1 μM, 1.0×10^6 cells/mL, maximal oral bioavailability calculated from half-life
Protocol: Determination of in vitro metabolic stability in rat hepatocytes (including calculation of hepatic in vivo blood clearance (CL))
Hepatocytes from Han Wistar rats were isolated via a 2-step perfusion method. After perfusion, the liver was carefully removed from the rat: the liver capsule was opened and the hepatocytes were gently shaken out into a Petri dish with ice-cold Williams' medium E (WME). The resulting cell suspension was filtered through sterile gaze in 50 mL falcon tubes and centrifuged at 50×g for 3 min at room temperature. The cell pellet was resuspended in 30 mL WME and centrifuged through a Percoll® gradient for 2 times at 100×g. The hepatocytes were washed again with WME and resuspended in medium containing 5% FCS. Cell viability was determined by trypan blue exclusion.
The test compound was added to a final concentration of 1 μM. […] Samples were frozen at −20° C. overnight, subsequently centrifuged for 15 minutes at 3000 rpm and the supernatant was analyzed with an Agilent 1200 HPLC-system with LCMS/MS detection.
(§2) The half-life of a test compound was determined from the concentration-time plot. From the half-life (kel: slope of concentration-time plot; half-life=ln 2/kel) the intrinsic clearances were calculated. Together with the additional parameters liver blood flow, amount of liver cells in vivo and in vitro.
(§3) Metabolic instability is often the main clearance mechanism of xenobiotica leading to a high CL and low bioavailability which may eventually result in a short half-life and a low exposure after oral administration. Thus, reducing the susceptibility of metabolic degradation usually leads to a more favourable pharmacokinetic profile. When using liver microsomes as incubation matrix main phase I metabolic reactions, typically oxidoreductive reactions by cytochrome P450 enzymes and flavin mono-oxygenases (FMO) and hydrolytic reactions by esterases/amidases/epoxidhydrolases, are described. When the incubation of the test compound is performed in a hepatocyte matrix all potential hepatic metabolic processes (phase I and phase II) are covered.

CYP1A2 = CYP1A2 (Homo sapiens (Human), UniProt P05177); assay: CYP inhibition assay, CYP1A2
Protocol: as §1
(§4) Data analysis: The CYP-mediated activities in the presence of inhibitors were expressed as percentages of the corresponding control values. A sigmoid-shaped curve was fitted to the data, and the enzyme inhibition parameter IC50 was calculated using a nonlinear least-squares regression analysis of the plot of percent control activity versus concentration of the test inhibitor.

CYP2C9 = CYP2C9 (Homo sapiens (Human), UniProt P11712); assay: CYP inhibition assay, CYP2C9; type: in vitro ADME; details: human liver microsomes, probe diclofenac
Protocol: as §1, §4

[2] = In vitro metabolic stability in liver microsomes (calculation of CL and Fmax); type: in vitro ADME, human; details: 1 μM, 0.5 mg/mL protein, maximal oral bioavailability calculated from half-life
Protocol: In Vitro Metabolic Stability Assays Determination of in vitro metabolic stability in microsomes (including calculation of hepatic in vivo blood clearance (CL) and of maximal oral bioavailability (Fmax))
The metabolic assay was started shortly afterwards by adding the test compound to the incubation at a final volume of 1 mL. Organic solvent in the incubations was limited to […] dimethylsulfoxide (DMSO) and ≤1% acetonitrile. […] Samples were frozen at −20° C. overnight, subsequently centrifuged for 15 minutes at 3000 rpm and the supernatant was analyzed with an Agilent 1200 HPLC-system with LCMS/MS detection.
as §2, with “specific” for “amount of”, “weight and microsomal protein content the hepatic” for “cells”, “vivo blood clearance (CL)” for “vivo”, “the maximal oral bioavailability (Fmax) were calculated for the different species.” for “in vitro.”
as §3

CYP2D6 = CYP2D6 (Homo sapiens (Human), UniProt P10635); assay: CYP inhibition assay, CYP2D6; type: in vitro ADME; details: human liver microsomes, probe dextromethorphan
Protocol: as §1, §4

CYP2C8 = CYP2C8 (Homo sapiens (Human), UniProt P10632); assay: CYP inhibition assay, CYP2C8; type: in vitro ADME; details: human liver microsomes, probe amodiquine
Protocol: as §1, §4

CYP3A4 [3] = biological target: T1, CYP3A4; assay: CYP inhibition assay, CYP3A4; type: in vitro ADME; details: human liver microsomes, probe midazolam
Protocol: as §1, §4

[4] = test system: CFA-induced mechanical hyperalgesia; assay: Mouse CFA in vivo model (von Frey filaments); design: species or system Female C57BL/6 mice; details: 25 mg/kg p.o. b.i.d., 72 hrs after CFA-injection
Protocol: Mouse CFA In Vivo Model […] Mechanical hyperalgesia was measured using von Frey filaments. Briefly, von Frey filaments were being used to stimulate the animal's hindpaw and a behavioural response was measured depending on the strength of the von Frey filament used. The strength of the filament was expressed in [g] and the threshold was recorded when a response of the animal was observed. Both CFA-injected and contralateral response thresholds were determined for each mouse and in each treatment group 72 hrs after CFA-injection. Compound application was done p.o. b.i.d., starting one hour before CFA injection. Data were expressed as the mean threshold for each treatment group. Data were analysed by performing a one way ANOVA over the different dose groups. Planned comparison of means (each versus vehicle) was performed by using a Dunnett's post hoc test, provided that a main effect was detected.

vaginal hyperalgesia = assay: Rat dyspareunia model (visceromotor response to vaginal distension); type: in vivo, female Sprague Dawley rats
From the text: The visceromotor response (VMR) to vaginal distension was used in conscious animals as an objective measure of vaginal sensitivity. […] To measure VMR response, 2 Teflon-coated wire electrodes were sutured in the external oblique abdominal muscle, and tunneled subcutaneously to be exteriorized at the base of the neck for future access. On the day of VMR assessment, a lubricated small balloon (1 cm length) was inserted into the mid-vaginal canal. The balloon catheter was secured to the base of the tail and connected to a volume controller/timing device (infusion pump) for balloon distension. The vaginal balloon was inflated to ramp intensities of distension (0.05 ml increments every 20 sec.) to a maximal volume of 0.8 ml. The electrodes were connected to an amplifier (Animal Bio Amp, ADInstrunnents), and the abdominal electromyographic signal was recorded using a data acquisition system (PowerLab, ADInstrunnents) for off-line analysis using LabChart version 7. The number of abdominal muscle contractions was counted manually for each 0.1 ml distension step, as an index of vaginal pain. […] All data were expressed as mean±standard deviation (s.d.), for the number (n) of measured rats per group. […] Planned comparison of means (matched-volume versus vehicle) was performed using a Bonferroni post hoc test, provided that a main effect was detected. […]

[5] = test system: CFA-induced mechanical hyperalgesia; assay: Rat CFA in vivo model (mechanical hyperalgesia, paw withdrawal threshold); design: species or system Male Sprague Dawley rats; details: 3 mg/kg p.o., dosed 24 hours after CFA injection
Protocol: Rat CFA In Vivo Model Male Sprague Dawley rats were used. Mechanical hyperalgesia was induced by injecting 25 μl of Complete Freund's Adjuvant (CFA) into the plantar surface of one hind paw. Mechanical hyperalgesia was measured using the Pressure Application Measurement apparatus (Ugo Basile, Gemonio, Italy). Briefly, a linearly increasing pressure was applied to an area of ˜50 mm2 of the plantar side of the hind paw until a behavioural response (paw withdrawal) was observed or until the pressure reached 1000 gf. The pressure at which the behavioural response occurred was recorded as the “Paw Withdrawal Threshold” (PWT). Both CFA-injected and contralateral PWTs were determined for each rat, in each treatment group and at each time point of the studies. […] Compounds were dosed 24 hours after CFA injection. Data were expressed as the mean PWT for each treatment group and at each time point. Data were analysed by performing a repeated measures two way ANOVA (time×treatment). Planned comparison of means (each versus vehicle) was performed by using a Dunnett's post hoc test, provided that a main effect was detected. […] More preferred examples of the present invention show rat CFA in vivo efficacy in the ‘Paw withdrawal threshold 6 hours post drug’ measure when dosed at 3 mg/kg p.o.

[6] = Human liver cytosol stability assay; type: in vitro ADME; details: human liver cytosol 1 mg/mL, 1 or 10 μM, 37° C.
Protocol: Human Liver Cytosol Stability Assay
Method description: Human liver cytosol (pooled, >30 male and female donors) was incubated with individual test compounds in order to compare the extent of depletion of test compound and formation of the respective oxidised metabolite. […] An incubation volume of 1000 μL was used. The test compound was added from a stock solution in acetonitrile at 1 or 10 μM concentration in the incubation. Incubations were performed at 37° C. Reactions were stopped at 0 h and 4 h after incubation by addition of 100 μL acetonitrile to 250 μL of incubation mixture. Precipitated proteins were removed by centrifugation at approximately 3000 rpm. The supernatants were stored at approximately −20° C. until they were analysed. […]
Data analysis: The depletion of the test compound and formation of the corresponding metabolites were determined by decrease or increase of the corresponding peak area in the chromatogram after UV detection at approximately 300 nm 4 h after incubation compared to that at 0 h after incubation. […]

[7] = In vivo pharmacokinetics in dogs; details: Beagle, plasma, dog
Protocol: For pharmacokinetics after intragastral administration test compounds were given intragastral to fasted rats, dogs and monkeys. […] An aliquot of 100 μL from the supernatant (plasma) was taken and precipitated by addition of 400 μL cold acetonitril and frozen at −20° C. over night. Samples were subsequently thawed and centrifuged at 3000 rpm, 4° C. for 20 minutes. Aliquots of the supernatants were taken for analytical testing using an Agilent HPLC-system with LCMS/MS detection. PK parameters were calculated by non-compartmental analysis using a PK calculation software, (e.g. Phoenix WinNonlin®, Certara USA, Inc.).
PK parameters directly taken or calculated from concentration time profiles after i.g.: Cmax: Maximal plasma concentration (directly taken from the profile in mg/L); Cmaxnorm: Cmax divided by the administered dose (in kg/L); Tmax: Time point at which Cmax was observed (in h).

T1 sequence (P08684 whole entry): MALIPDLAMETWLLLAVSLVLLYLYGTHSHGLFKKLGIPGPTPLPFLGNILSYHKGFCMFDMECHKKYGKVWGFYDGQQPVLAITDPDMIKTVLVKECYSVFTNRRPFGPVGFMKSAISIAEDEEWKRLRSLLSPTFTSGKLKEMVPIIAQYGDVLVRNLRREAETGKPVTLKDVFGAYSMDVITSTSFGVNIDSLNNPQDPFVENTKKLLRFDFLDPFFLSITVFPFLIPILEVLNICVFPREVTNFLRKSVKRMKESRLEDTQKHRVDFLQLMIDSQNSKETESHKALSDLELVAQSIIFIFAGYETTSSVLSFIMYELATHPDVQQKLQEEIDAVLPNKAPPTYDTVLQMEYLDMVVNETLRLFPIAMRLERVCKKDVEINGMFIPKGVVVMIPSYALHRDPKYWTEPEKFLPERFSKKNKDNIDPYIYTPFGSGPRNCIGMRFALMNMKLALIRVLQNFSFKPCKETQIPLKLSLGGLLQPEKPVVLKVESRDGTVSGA
CYP2D6, sequence (P10635 whole entry): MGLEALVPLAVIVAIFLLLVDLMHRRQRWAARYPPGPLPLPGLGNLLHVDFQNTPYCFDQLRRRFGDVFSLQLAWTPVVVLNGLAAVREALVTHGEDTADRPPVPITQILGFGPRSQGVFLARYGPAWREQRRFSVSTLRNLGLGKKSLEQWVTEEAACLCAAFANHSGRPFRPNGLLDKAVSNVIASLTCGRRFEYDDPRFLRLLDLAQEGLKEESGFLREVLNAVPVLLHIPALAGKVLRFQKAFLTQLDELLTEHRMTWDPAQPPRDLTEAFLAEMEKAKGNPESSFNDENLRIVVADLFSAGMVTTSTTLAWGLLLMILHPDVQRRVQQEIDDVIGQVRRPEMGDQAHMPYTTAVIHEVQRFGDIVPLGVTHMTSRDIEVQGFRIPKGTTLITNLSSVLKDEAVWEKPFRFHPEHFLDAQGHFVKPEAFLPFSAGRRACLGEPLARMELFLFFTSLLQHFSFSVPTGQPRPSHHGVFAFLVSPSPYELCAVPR
CYP2C8, sequence (P10632 whole entry): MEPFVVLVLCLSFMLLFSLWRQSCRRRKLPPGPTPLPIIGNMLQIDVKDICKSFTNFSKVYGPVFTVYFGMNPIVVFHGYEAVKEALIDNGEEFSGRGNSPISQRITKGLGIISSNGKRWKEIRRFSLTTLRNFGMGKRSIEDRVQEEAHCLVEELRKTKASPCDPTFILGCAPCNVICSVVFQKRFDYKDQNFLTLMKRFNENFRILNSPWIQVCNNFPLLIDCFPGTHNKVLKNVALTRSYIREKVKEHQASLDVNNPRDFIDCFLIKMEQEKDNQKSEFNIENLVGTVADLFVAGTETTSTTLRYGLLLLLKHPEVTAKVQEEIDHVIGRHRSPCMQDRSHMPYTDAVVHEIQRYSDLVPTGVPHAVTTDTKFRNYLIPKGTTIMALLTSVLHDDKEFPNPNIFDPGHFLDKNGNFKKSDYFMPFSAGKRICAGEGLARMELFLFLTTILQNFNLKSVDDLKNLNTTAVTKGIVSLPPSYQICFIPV
CYP1A2, sequence (P05177 whole entry): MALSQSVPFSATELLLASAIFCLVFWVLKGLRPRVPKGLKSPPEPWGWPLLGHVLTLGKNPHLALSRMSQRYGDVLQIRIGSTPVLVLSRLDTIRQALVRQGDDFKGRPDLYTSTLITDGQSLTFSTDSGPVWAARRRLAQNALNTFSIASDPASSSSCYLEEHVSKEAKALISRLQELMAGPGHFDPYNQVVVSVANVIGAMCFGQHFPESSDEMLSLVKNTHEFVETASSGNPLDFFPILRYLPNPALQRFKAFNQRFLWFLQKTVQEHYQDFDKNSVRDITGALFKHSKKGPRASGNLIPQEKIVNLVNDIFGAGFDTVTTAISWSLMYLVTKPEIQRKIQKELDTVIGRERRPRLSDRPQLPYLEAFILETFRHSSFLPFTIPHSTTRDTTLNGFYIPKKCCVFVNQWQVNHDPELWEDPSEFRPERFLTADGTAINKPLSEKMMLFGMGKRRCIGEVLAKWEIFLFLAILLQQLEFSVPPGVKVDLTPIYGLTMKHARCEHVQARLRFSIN
CYP2C9, sequence (P11712 whole entry): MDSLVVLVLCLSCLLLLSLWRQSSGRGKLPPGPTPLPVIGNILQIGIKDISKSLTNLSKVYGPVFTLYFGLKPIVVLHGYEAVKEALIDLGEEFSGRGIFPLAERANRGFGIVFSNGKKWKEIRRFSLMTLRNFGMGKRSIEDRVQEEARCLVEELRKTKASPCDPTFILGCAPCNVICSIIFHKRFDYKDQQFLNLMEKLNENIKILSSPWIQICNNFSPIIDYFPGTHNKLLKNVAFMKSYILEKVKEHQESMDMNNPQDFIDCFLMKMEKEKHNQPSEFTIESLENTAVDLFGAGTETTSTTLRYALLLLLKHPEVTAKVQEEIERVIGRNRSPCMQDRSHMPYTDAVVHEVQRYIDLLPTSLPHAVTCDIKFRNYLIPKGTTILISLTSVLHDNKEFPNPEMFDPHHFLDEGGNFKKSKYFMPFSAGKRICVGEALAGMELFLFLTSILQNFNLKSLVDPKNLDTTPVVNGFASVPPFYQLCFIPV

In the case of `Cc1cnc(-c2cc(OC(C)C(C)O)cc(C(=O)N[C@H](C)c3cnc(C(F)(F)F)nc3)c2)s1` (single isomer, unassigned) [Example 163], the IC50 (CYP3A4 [1]) is reported as over 20 µM, the “Rat hepatocyte Fmax” value (rat hepatocytes) is reported as 53% and the IC50 (CYP1A2) is reported as over 20 µM. For the same molecule, the IC50 (CYP2C9) was over 20 µM, the “Human liver microsome Fmax” value [2] was 100% and the IC50 (CYP2D6) was over 20 µM. The IC50 (CYP2C8) was over 20 µM and the IC50 (CYP3A4 [3]) was over 20 µM.

In the case of `Cc1cnc(-c2cc(O[C@@H]3CCOC3)cc(C(=O)N[C@H](C)c3cnc(C(F)(F)F)nc3)c2)s1` [Example 11, 3-(5-Methyl-1,3-thiazol-2-yl)-5-[(3R)-tetrahydrofuran-3-yloxy]-N-{(1R)-1-[2-(trifluoromethyl)pyrimidin-5-yl]ethyl}benzamide], the “Efficacy mouse CFA model (von Frey response threshold)” value [4] is reported as 0.682 g ± 0.122 (*), the “Rat hepatocyte Fmax” value (rat hepatocytes) is reported as 52% and the “Human liver microsome Fmax” value [2] is reported as 57%. The “vaginal hyperalgesia compared to vehicle-treated animals” value (vaginal hyperalgesia; 15 mg/kg oral b.i.d. during 2 weeks) was “decreased vaginal hyperalgesia”, the “AUC of cumulative number of abdominal contractions against vaginal distension volume” value (vaginal hyperalgesia; 15 mg/kg oral b.i.d. for 2 weeks, 6 weeks post-implantation (off-drug), mean ± s.d.) was 1.64 ± 1.53 (17) and the “Paw withdrawal threshold 6 hour-post drug” value [5] was 639 ± 48 gf (*). For the same molecule, the “Test compound turnover after 4 h” value [6] was 12%, the half-life ([7]; iv, 0.5 mg/kg i.v., read-out: Dog t½ i.v. (converted)) was 8.8 h and the bioavailability ([7]; oral, 1 mg/kg p.o., 0.5 mg/kg i.v., read-out: Dog Bioavailability (BA)) was 70%. For the same molecule, the half-life ([7]; po, 1 mg/kg p.o., read-out: Dog t½ p.o. (converted)) was 12 h.
